Reference: patent US8575188B2 (priority 2009, dated 2013)
Like-named read-outs stand apart in the source and are kept apart here.

Assays:
[1] = system: human non small cell lung cancer cell line H460; assay: Antiproliferation (cytotoxicity) assay, 72 hrs under air, Alamar Blue; assay type: cell-based; details: Homo sapiens, NCI-H460; H460, inhibition of proliferation, 72 hrs under air; read-out: IC50
[2] = system: Messa ovarian carcinoma cell line; assay: Efflux pump drug resistance, antiproliferation assay, parent line; assay type: cell-based; details: Homo sapiens, MES-SA, air
Method: […] Cells were treated with test compounds at various concentrations under air for 72 hrs, and then cell viability and proliferation were assessed by Alamar Blue staining.
(§1) Cellular drug resistance was determined using the antiproliferation assay described above.

[3] = system: DX5, which over expresses the MDR 1 efflux pump; assay: Efflux pump drug resistance, antiproliferation assay, MDR 1 over expressing line; assay type: cell-based; details: air
Method: (§2) The compounds were screened for cytotoxicity using human non small cell lung cancer cell line H460. […]
as §1

[4] = system: H69 small cell lung cancer line; assay: Efflux pump drug resistance, antiproliferation assay, parent line; assay type: cell-based; details: air
Method: as §2, §1

pcDNA = assay: as above; assay type: cell-based; details: 72 h, air, 3 days; read-out: Air 3d pcDNA prol. IC50
Method: as §2, §1

[5] = system: MRP1 over expressing H69AR line; assay: Efflux pump drug resistance, antiproliferation assay, MRP1 over expressing line; assay type: cell-based; details: Homo sapiens, air
Method: as §2, §1

[6] = system: BCRP, which over expressed the breast cancer resistance protein; assay: Efflux pump drug resistance, antiproliferation assay, BCRP over expressing line; details: for IC50: 72 h, read-out: Air 3d BCRP prol. IC50 nM, air, 3 days; for 3d BCRP/pcDNA: ratio of IC50s, BCRP over expressing versus parent line, 3 days
Method: as §2, §1

[7] = Bone marrow progenitor cell clonogenic assay (CFU-GM), mouse; details: mouse
Method: (§3) A clonogenic assay was performed using bone marrow progenitor cells derived from the blood of mice and humans.

[8] = system: bone marrow progenitor cells; assay: as above; details: Mus musculus, CFU-GM, read-out: Mouse CFU-GM (IC50 nM) THLD
Method: as §3

[9] = Bone marrow progenitor cell clonogenic assay (CFU-GM), human; details: human
Method: as §3

[10] = system: bone marrow progenitor cells; assay: as above; details: Homo sapiens, CFU-GM, read-out: Human CFU-GM (IC50 nM) THLD
Method: as §3

[11] = In vivo pharmacokinetics, oral gavage; details: CD, mouse, in vivo, po; for AUC / Cmax: 50 mg/kg
Method: The data normalized to a 50 mg/kg dose are shown below (compounds were dosed at either 25 or 50 mg/kg).

human colon cancer HT-29 = assay: Xenograft model, subcutaneous, tumor growth inhibition and body weight loss; details: for TGI (%): HT29, PO, QD × 5/wk, 2 weeks; for Max. BWL (%): mouse, in vivo, po
Method: (§4) The first three models were produced by subcutaneous implantation of the appropriate number of cells into the flank of the animals. When tumor size was approximately 150 mm^3, animals were randomized into groups of 10 mice each for dosing. One arm was dosed with only vehicle and the results used for the efficacy calculations. […] TGI=(1−T/C) %. T/C ratio was calculated as T/C=(Tn−Ti)/(Cn−Ci), where Tn is tumor volume in treatment group on Day n, and Ti is the initial tumor volume in the treatment group. Cn is the tumor volume of the vehicle group on the last day of measurement. Ci is the initial tumor volume in the vehicle control group. Day n is the last measurement taken when all the animals in the vehicle group were not yet euthanized. Animals were euthanized when tumor volumes grew larger than 2000 mm^3.

[12] = system: human non small cell lung cancer H-460; assay: as above; details: for TGI (%): H460, PO, QD × 5/wk, 2 weeks; for Max. BWL (%): mouse, in vivo, po
Method: as §4

[13] = system: human prostate cancer PC-3; assay: as above; details: for TGI (%): PC3, PO, QD × 5/wk, 2 weeks, 40 mg/Kg; for Max. BWL (%): mouse, in vivo, po, 40 mg/kg
Method: as §4

[14] = 72 h, 3 days, read-out: Air 3d MESSA prol. IC50
[15] = MDR1, 72 h, 3 days, read-out: Air 3d DX5 prol. IC50
[16] = 72 h, 3 days, read-out: Air 3d H69 prol. IC50
[17] = 72 h, 3 days, read-out: Air 3d H69ar (MRP1) prol. IC50

## CCc1c2c(nc3ccccc13)-c1c(NC=O)c3c(c(=O)n1C2)COC(=O)[C@]3(O)CC [TH1408]
[1]
  IC50: 66 nM
[2]; [14]
  IC50: 81 nM
[3]; [15]
  IC50: 40 nM
[4]; [16]
  IC50: 242 nM
pcDNA
  IC50: 9.5 nM
[5]; [17]
  IC50: 285 nM
[6]
  IC50: 7.3 nM
  3d BCRP/pcDNA: 0.7684
[7]
  IC90: 5000 nM
[8]
  IC50: 700 nM
[9]
  IC90: 650 nM
[10]
  IC50: 90 nM
[11]
  half-life: 48.3 min
  AUC: 8430 ng·h/mL
  Cmax: 6070 ng/mL

## CC[C@@]1(O)C(=O)OCc2c1c([N+](=O)[O-])c1n(c2=O)Cc2c-1nc1ccccc1c2C [TH1446]
[1]
  IC50: 850 nM
[2]; 120 h, 5 days, read-out: Air 5d MESSA prol. IC50
  IC50: 4450 nM
[3]; MDR1, 120 h, 5 days, read-out: Air 5d DX5 prol. IC50
  IC50: 4960 nM
[4]; 120 h, 5 days, read-out: Air 5d H69 prol. IC50
  IC50: 2740 nM
pcDNA
  IC50: 574 nM
[5]; 120 h, 5 days, read-out: Air 5d H69ar (MRP1) prol. IC50
  IC50: 8510 nM
[6]
  IC50: 2740 nM
  3d BCRP/pcDNA: 4.777
Human colon cancer HT-29; 40 mg/Kg
  TGI (%): 29.5%
Human colon cancer HT-29; 40 mg/kg
  Max. BWL (%): 1.1%
[11]
  half-life: 35.4 min
  AUC: 4280 ng·h/mL
  Cmax: 5100 ng/mL

## CC[C@@]1(O)C(=O)OCc2c1c(N)c1n(c2=O)Cc2c-1nc1ccccc1c2/C=N/OC(C)(C)C [TH1499]
[1]
  IC50: 19 nM
[2]; [14]
  IC50: 9 nM
[3]; [15]
  IC50: 5 nM
[4]; [16]
  IC50: 217 nM
pcDNA
  IC50: 3.2 nM
[5]; [17]
  IC50: 463 nM
[6]
  IC50: 3.4 nM
  3d BCRP/pcDNA: 1.0625
Human colon cancer HT-29; 25 mg/Kg
  TGI (%): 4.7%
Human colon cancer HT-29; 25 mg/kg
  Max. BWL (%): 1.8%

## CC[C@@]1(O)C(=O)OCc2c1c(NC=O)c1n(c2=O)Cc2cc3ccccc3nc2-1 [TH1589]
[1]
  IC50: 59 nM
[7]
  IC90: 6200 nM
[8]
  IC50: 920 nM
[9]
  IC90: 680 nM
[10]
  IC50: 110 nM
[12]; 30 mg/Kg
  TGI (%): 76%
[12]; 30 mg/kg
  Max. BWL (%): 10.4%
[13]
  TGI (%): 80%
  Max. BWL (%): 0.1%

## CCCc1c2c(nc3ccccc13)-c1c(N)c3c(c(=O)n1C2)COC(=O)[C@]3(O)CC [TH1651]
[1]
  IC50: 6.2 nM
[12]; 40 mg/Kg
  TGI (%): 80%
[12]; 40 mg/kg
  Max. BWL (%): 5.5%
[13]
  TGI (%): 80%
  Max. BWL (%): 4.8%
